Test results: publication PMC6700223 (Frontiers in Microbiology, 2019)

Molecular target: HR1-1 peptide (HR1 domain of LASV GP2) (Lassa virus, UniProt P08669)
Test: biochemical
Type: binding

HR1-1 peptide (HR1 domain of LASV GP2), sequence (P08669 296-345 limits assumed): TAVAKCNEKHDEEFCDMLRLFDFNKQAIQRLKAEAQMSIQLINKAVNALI

## CC[C@H](C)[C@H](NC(=O)[C@H](CC(=O)O)NC(=O)[C@H](CC(=O)O)NC(=O)[C@H](CO)NC(=O)[C@H](Cc1ccccc1)NC(=O)[C@H](Cc1c[nH]cn1)NC(=O)[C@@H](NC(=O)[C@H](CCC(=O)O)NC(=O)[C@H](CC(N)=O)NC(=O)[C@H](CC(C)C)NC(=O)[C@H](Cc1ccc(O)cc1)NC(=O)[C@@H](N)CO)[C@@H](C)O)C(=O)N[C@@H](CCC(=O)O)C(=O)N[C@@H](CCC(N)=O)C(=O)N[C@@H](CCC(N)=O)C(=O)N[C@@H](C)C(=O)N[C@@H](CC(=O)O)C(=O)N[C@@H](CC(N)=O)C(=O)N[C@@H](CCSC)C(=O)N[C@H](C(=O)N[C@H](C(=O)N[C@@H](CCC(=O)O)C(=O)N[C@@H](CCSC)C(=O)N[C@@H](CC(C)C)C(=O)N[C@@H](CCC(N)=O)C(=O)N[C@@H](CCCCN)C(=O)N[C@@H](CCC(=O)O)C(=O)N[C@@H](Cc1ccc(O)cc1)C(=O)N[C@@H](CCSC)C(=O)N[C@@H](CCC(=O)O)C(=O)N[C@@H](CCCNC(=N)N)C(=O)N[C@@H](CCC(N)=O)C(=O)NCC(=O)N[C@@H](CCCCN)C(=O)N[C@H](C(=O)N1CCC[C@H]1C(=O)N[C@@H](CC(C)C)C(=O)O)[C@@H](C)O)[C@@H](C)O)[C@@H](C)CC [HR2-2]
  Binding to HR1-1 peptide (in words): strongly bind
Concentration 3.75 μM
  Response: 0.0341 nm
Concentration 7.5 μM
  Response: 0.0743 nm
Concentration 15 μM
  Response: 0.0958 nm
Concentration 30 μM
  Response: 0.119 nm

## CC[C@H](C)[C@H](NC(=O)[C@H](CC(=O)O)NC(=O)[C@H](CC(=O)O)NC(=O)[C@H](CO)NC(=O)[C@H](Cc1ccccc1)NC(=O)[C@H](Cc1c[nH]cn1)NC(=O)[C@@H](N)[C@@H](C)O)C(=O)N[C@@H](CCC(=O)O)C(=O)N[C@@H](CCC(N)=O)C(=O)N[C@@H](CCC(N)=O)C(=O)N[C@@H](C)C(=O)N[C@@H](CC(=O)O)C(=O)N[C@@H](CC(N)=O)C(=O)N[C@@H](CCSC)C(=O)N[C@H](C(=O)N[C@H](C(=O)N[C@@H](CCC(=O)O)C(=O)N[C@@H](CCSC)C(=O)N[C@@H](CC(C)C)C(=O)N[C@@H](CCC(N)=O)C(=O)N[C@@H](CCCCN)C(=O)N[C@@H](CCC(=O)O)C(=O)N[C@@H](Cc1ccc(O)cc1)C(=O)N[C@@H](CCSC)C(=O)N[C@@H](CCC(=O)O)C(=O)O)[C@@H](C)O)[C@@H](C)CC [HR2-3]
  kon: 1420 M⁻¹ s⁻¹
read-out: Kdis
  koff: 0.0823 s⁻¹
